We go through one compound from the NIST ThermoML archive (doi:10.1016/j.tca.2016.10.016).

“And” between values parts separate entries of the source, which are not always exact repeats. Identical values can stand only once. ± gives the expanded uncertainty stated by the source.

For series [1] the following is noted: Crystal; DTA.
Series [2] in a line: Molar enthalpy of transition or fusion. The settings on record: Crystal; DSC.

As for `O.O.O=C(O)C(=O)O` [ethanedioic acid dihydrate], in series [1], the Normal melting temperature is 99.60 ± 0.7 °C and 101.20 ± 0.7 °C. The “Molar enthalpy of transition or fusion” value in series [2] is 11.3 kcal/mol and 11.2 kcal/mol.
